Laboratory results reported in paper PMC4801399, “Impact of a CXCL12/CXCR4 Antagonist in Bleomycin (BLM) Induced Pulmonary Fibrosis and Carbon Tetrachloride (CCl4) Induced Hepatic Fibrosis in Mice” (PLoS ONE, 2016).
pIC50: −log10 of the molar value. Read-outs that look alike come from different tables or passages of the source.

Legend:
[1] = AMD070 PK study via PO: plasma and lung concentration; type: in vivo, CD-1 mice
Experimental: (§1) At each endpoint, mice were euthanized with CO2 and blood collected via cardiac puncture. An aliquot was set aside at room temperature for hematology measurements with remaining blood processed for plasma for drug concentration determination. Lungs were collected and immediately frozen on dry ice and stored at -70°C until determination of drug concentration. AMD070 concentrations in mouse plasma were determined using protein precipitation extraction followed by UPLC-MS/MS analysis. Briefly, 100 μL aliquots of plasma were transferred to individual wells of an Isolute PPT+ (Biotage) array plate containing 300 μL of 0.1% formic acid (FA) in acetonitrile (ACN). […] The sample residue was then reconstituted into 200 μL of 0.1/5/95 FA/ACN/H2O (v/v/v) and analyzed using reverse phase chromatography (gradient elution) combined with multiple reaction monitoring acquisition (MRM). The mobile phases consisted of 0.1% FA in H2O and 0.1% FA in ACN. AMD070 was extracted from lung and liver tissue by homogenization under basic conditions followed by liquid-liquid extraction in tert-butyl methyl ether (TBME) and ethyl acetate respectively. In summary, 50 mg of lung or liver tissue pieces were cut, weighed, and transferred to homogenization tubes. 25 μL of deionized water for lung and 10 μL for liver were added to each tube, followed by the addition of zirconium (Zr) homogenization beads. The samples were homogenized for approximately 20 seconds in the BeadBeater, followed by 1 minute of centrifugation at room temperature at 13,520 rcf. 200 μL of 1 N NaOH was then transferred to each tube, followed by a second homogenization/centrifugation cycle as described above. […] The dried residue was reconstituted into 0.1/5/95 TFA/ACN/H2O and analyzed using reverse phase chromatography (gradient elution) combined with MRM acquisition in positive electrospray mode (ES+). The mobile phases consisted of 0.1% TFA in H2O and 0.1% TFA in ACN.

[2] = test system: leukocyte mobilization (blood cell counts); assay: Hematology measurements after PO administration (leukocyte mobilization); type: in vivo, CD-1 mice
Experimental: At each endpoint, mice were euthanized with CO2 and blood collected via cardiac puncture. An aliquot was set aside at room temperature for hematology measurements with remaining blood processed for plasma for drug concentration determination. Lungs were collected and immediately frozen on dry ice and stored at -70°C until determination of drug concentration.

[3] = AMD070 PK study via SC injection: plasma, lung and liver concentration; type: in vivo, C57BL/6 mice; conditions: SC 400 μg/mouse; for Kp: C57BL/6, read-out: Tissue AUC/Plasma AUC
Experimental: as §1, with “All preceding procedures” for “At each endpoint, mice”, “same as those for AMD070 PK studies” for “euthanized with CO2 and blood collected”, “IP injections.” for “cardiac puncture. An aliquot was set aside at room temperature for hematology measurements with remaining blood processed for plasma for drug concentration determination. Lungs were collected and immediately frozen on dry ice and stored at -70°C until determination of drug concentration.”

CXCR4 = test system: CXCR4; design: method as in PMID 20297846; conditions: cited from earlier work

NCCCCN(Cc1nc2ccccc2[nH]1)[C@H]1CCCc2cccnc21 [AMD070]
drug levels in the lungs ([1]; PO 200 μg/animal): detectable but not quantifiable | lung Cmax ([1]; PO 400 μg/animal): 267 ng/g | time of lung Cmax after PO ([1]; PO 400 μg/animal): 6 h | plasma concentrations of drug ([1]; PO 200 or 400 μg/animal, data not shown): very low | time lung concentration above IC50 and EC90 ([1]; of the 24 hours after dosing, PO 400 μg/animal, WinNonlin analysis): at least 21 hours | Tmax of WBC increase ([2]; PO 200 μg/mouse): 180 min | WBC counts ([2]; PO 200 μg/mouse): significant, transient increase | WBC counts ([2]; PO 400 μg/mouse): increased and remained elevated for the full 24 hours | eosinophils (WBC differential) ([2]; PO 200 or 400 μg/mouse): no increases | lymphocytes (WBC differential) ([2]; PO 200 or 400 μg/mouse): increased | monocytes (WBC differential) ([2]; PO 200 or 400 μg/mouse): no increases | neutrophils (WBC differential) ([2]; PO 200 or 400 μg/mouse): no increases | platelet counts ([2]; PO 200 or 400 μg/mouse): did not change | red blood cell (RBC) counts ([2]; PO 200 or 400 μg/mouse): did not change | Cmax ([3]; C57BL/6, 400 ug, Liver): 5760 ng/g | Tmax ([3]; C57BL/6, 400 ug, Liver): 30 min | Cmax ([3]; C57BL/6, 400 ug, Lung): 5650 ng/g | Tmax ([3]; C57BL/6, 400 ug, Lung): 60 min | Cmax ([3]; C57BL/6, 400 ug, Plasma): 700 ng/mL | Tmax ([3]; C57BL/6, 400 ug, Plasma): 30 min | AUC ([3]; C57BL/6, 400 ug, Plasma, read-out: AUC (all time points)): 970 ng·h/mL | Kp ([3]; Liver): 79.7 | Kp ([3]; Lung): 83.3 | protein binding adjusted effective concentration (EC90) (CXCR4; 90% effectiveness): 0.044 µg/mL | pIC50 (CXCR4): 7.89
